Molecules are shown by their SMILES.

Chain of human GluN1/GluN2B NMDA receptors (Q13224 27-1484, other chains not shown): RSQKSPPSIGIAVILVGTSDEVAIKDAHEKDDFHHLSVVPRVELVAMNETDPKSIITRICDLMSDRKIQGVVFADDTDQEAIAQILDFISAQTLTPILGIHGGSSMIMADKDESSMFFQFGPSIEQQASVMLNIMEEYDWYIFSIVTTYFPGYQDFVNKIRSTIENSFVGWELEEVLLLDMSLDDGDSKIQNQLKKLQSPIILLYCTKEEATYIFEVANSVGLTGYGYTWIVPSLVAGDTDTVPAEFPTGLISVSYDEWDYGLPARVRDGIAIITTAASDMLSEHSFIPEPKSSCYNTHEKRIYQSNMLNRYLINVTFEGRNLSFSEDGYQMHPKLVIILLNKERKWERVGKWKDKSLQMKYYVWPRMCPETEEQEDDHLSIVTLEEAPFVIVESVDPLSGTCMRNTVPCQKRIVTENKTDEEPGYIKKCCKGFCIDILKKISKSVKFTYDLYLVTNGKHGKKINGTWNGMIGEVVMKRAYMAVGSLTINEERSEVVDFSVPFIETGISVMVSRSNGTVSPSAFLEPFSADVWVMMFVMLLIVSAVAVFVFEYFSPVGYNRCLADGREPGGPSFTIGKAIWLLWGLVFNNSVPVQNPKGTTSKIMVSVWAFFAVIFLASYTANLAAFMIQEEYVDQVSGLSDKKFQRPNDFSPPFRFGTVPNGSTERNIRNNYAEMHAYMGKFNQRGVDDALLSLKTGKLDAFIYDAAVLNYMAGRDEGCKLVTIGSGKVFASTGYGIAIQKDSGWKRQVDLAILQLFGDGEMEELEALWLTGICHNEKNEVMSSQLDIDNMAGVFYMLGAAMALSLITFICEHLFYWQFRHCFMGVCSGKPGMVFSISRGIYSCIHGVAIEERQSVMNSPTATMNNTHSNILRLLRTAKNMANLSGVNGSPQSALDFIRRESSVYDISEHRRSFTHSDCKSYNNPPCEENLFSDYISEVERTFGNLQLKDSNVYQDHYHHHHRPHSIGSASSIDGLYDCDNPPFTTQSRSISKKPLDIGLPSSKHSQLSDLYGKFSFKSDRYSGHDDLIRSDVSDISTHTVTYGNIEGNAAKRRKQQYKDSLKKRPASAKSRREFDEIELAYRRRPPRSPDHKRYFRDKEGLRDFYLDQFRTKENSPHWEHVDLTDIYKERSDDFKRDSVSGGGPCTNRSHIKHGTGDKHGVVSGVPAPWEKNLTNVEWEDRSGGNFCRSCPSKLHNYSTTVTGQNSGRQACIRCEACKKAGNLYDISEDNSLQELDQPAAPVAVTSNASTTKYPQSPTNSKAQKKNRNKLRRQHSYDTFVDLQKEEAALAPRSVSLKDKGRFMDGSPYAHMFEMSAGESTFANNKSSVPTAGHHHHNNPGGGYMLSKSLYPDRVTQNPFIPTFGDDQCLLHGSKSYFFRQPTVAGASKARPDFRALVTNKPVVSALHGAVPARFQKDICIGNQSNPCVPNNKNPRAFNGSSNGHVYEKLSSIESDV

For the assay, the target named is human GluN1/GluN2B NMDA receptors (Homo sapiens, UniProt Q05586+Q13224). The assay can be described thus: Cell-based calcium flux (FLIPR) assay on cloned human NR1/NR2B ion channels expressed in mammalian cells. The conditions noted are these: standard assay; human GluN1/GluN2B, calcium flux (FLIPR), glutamate ~EC80. Here is the method:
Effects of Test Articles on Cloned Human NR1/NR2B Ion Channels Expressed in Mammalian Cells
NMDA receptors are ion channels that are highly permeable to Ca^2+ ions, rendering it possible to monitor NMDA receptor function using cell-based calcium flux assay. In this assay, co-agonists glutamate and glycine are added to cells heterologously expressing human GluN1/GluN2B NMDA receptors to initiate cellular Ca^2+ influx. The time course of the changes in intracellular calcium is measured using a fluorescent dye and a FLIPR (Fluorometric Imaging Plate Reader) device.
Twenty four hours before measurements, the expression of the NMDA receptors in the stable cell line is induced with Tet-On inducible system in the presence of a non-selective NMDA receptor blocker. On the day of the experiment, cell culture media is carefully washed and the cells are loaded with Calcium 5 Dye Kit (Molecular Devices) in dye loading buffer containing 149 mM NaCl, 4 mM KCl, 2 mM CaCl2, and 1.5 mM MgCl2, 10 mM HEPES and 5 mM D-glucose; pH 7.4. After 1 h incubation at the room temperature, the dye is washed away with the assay buffer (149 mM NaCl (standard assay) or 150 mM (HTS assay), 4 mM KCl (standard assay) or 3 mM (HTS assay), 2 mM CaCl2, 0.01 mM EDTA, 10 mM HEPES and 5 mM D-glucose; pH 7.4) In the FLIPR TETRA reader, various concentrations of the test compounds are added to the cells for 5 min while fluorescence is monitored to detect potential agonist activity. Next, co-agonists, glutamate and glycine are added for another 5 minutes. The concentration of glutamate corresponding to ˜EC80 (standard assay) or EC40 (HTS assay) is used to maximize the assay's signal window or the ability to detect NMDA receptor antagonists and negative allosteric modulators, respectively. A saturating concentration (10 μM) of glycine is also present in the assay. […] The fluorescent signal in the presence of test compounds is quantified and normalized to the signal defined by the appropriate control wells.
For orientation: IC50 means the concentration at which inhibition is half-maximal. In the case of `FC(F)Oc1cc(-n2cc(COc3ccncn3)nn2)ccc1Cl` [Example 13, 4-[[1-[4-Chloro-3-(difluoromethoxy)phenyl]triazol-4-yl]methoxy]pyrimidine], the half-inhibitory concentration (IC50) is 0.879 µM. The figure for `FC(F)Oc1cc(-n2cc(COc3cccnn3)nn2)ccc1Cl` [Example 14, 3-[[1-[4-Chloro-3-(difluoromethoxy)phenyl]triazol-4-yl]methoxy]pyridazine] is 0.401 µM; for `COc1cc(-n2cc(COc3ncccn3)nn2)ccc1Cl` [Example 15, 2-[[1-(4-Chloro-3-methoxy-phenyl)triazol-4-yl]methoxy]pyrimidine] it is 0.699 µM. For `Cc1cnc(OCc2cn(-c3ccc(F)c(Br)c3)nn2)nc1` [Example 16, 2-[[1-(3-Bromo-4-fluoro-phenyl)triazol-4-yl]methoxy]-5-methylpyrimidine], the 50% inhibitory concentration (IC50) was 0.001 µM. The figure for `Cc1ccnc(OCc2cn(-c3ccc(F)c(Br)c3)nn2)n1` [Example 17, 2-[[1-(3-Bromo-4-fluoro-phenyl)triazol-4-yl]methoxy]-4-methylpyrimidine] is 0.01 µM; for `Cc1cc(C)nc(OCc2cn(-c3ccc(F)c(Br)c3)nn2)n1` [Example 18, 2-[[1-(3-Bromo-4-fluoro-phenyl)triazol-4-yl]methoxy]-4,6-dimethyl-pyrimidine] it is 0.082 µM; for `Fc1cnc(OCc2cn(-c3ccc(F)c(Br)c3)nn2)nc1` [Example 19, 2-[[1-(3-Bromo-4-fluoro-phenyl)triazol-4-yl]methoxy]-5-fluoropyrimidine] it is 0.056 µM.

As to `COc1cc(-n2cc(COc3ncccn3)nn2)ccc1F` [Example 20, 2-[[1-(4-Fluoro-3-methoxy-phenyl)triazol-4-yl]methoxy]pyrimidine], the IC50 stood at 1 µM.

Turning to `Cc1ccnc(OCc2cn(-c3ccc(Cl)c(OC(F)F)c3)nn2)n1` [Example 21, 2-[[1-[4-Chloro-3-(difluoromethoxy)phenyl]triazol-4-yl]methoxy]-4-methyl-pyrimidine], the 50% inhibitory concentration (IC50) is 0.002 µM. As for `Cc1cnc(OCc2cn(-c3ccc(Cl)c(OC(F)F)c3)nn2)nc1` [Example 22, 2-[[1-[4-Chloro-3-(difluoromethoxy)phenyl]triazol-4-yl]methoxy]-5-methyl-pyrimidine], the IC50 is 0.002 µM. The figure for `FC(F)Oc1cc(-n2cc(COc3cnccn3)nn2)ccc1Cl` [Example 23, 2-[[1-[4-Chloro-3-(difluoromethoxy)phenyl]triazol-4-yl]methoxy]pyrazine] is 0.456 µM; for `Fc1ccc(-n2cc(CNc3ncccn3)nn2)cc1C(F)F` [Example 24, N-[[1-[3-(Difluoromethyl)-4-fluoro-phenyl]triazol-4-yl]methyl]pyrimidin-2-amine] it is 0.824 µM. Regarding `Fc1ccc(-n2cc(COc3ncccn3)nn2)cc1C(F)F` [Example 25, 2-((1-(3-(difluoromethyl)-4-fluorophenyl)-1H-1,2,3-triazol-4-yl)methoxy)pyrimidine], the IC50 stood at 0.05 µM. As for `COc1cnc(OCc2cn(-c3ccc(Cl)c(OC(F)F)c3)nn2)nc1` [Example 26, 2-[[1-[4-Chloro-3-(difluoromethoxy)phenyl]triazol-4-yl]methoxy]-5-methoxy-pyrimidine], the 50% inhibitory concentration (IC50) came to 0.003 µM.

For the molecule `CCc1cnc(OCc2cn(-c3ccc(Cl)c(OC(F)F)c3)nn2)nc1` [Example 27, 2-[[1-[4-Chloro-3-(difluoromethoxy)phenyl]triazol-4-yl]methoxy]-5-ethyl-pyrimidine], the half-inhibitory concentration (IC50) came to 0.009 µM. For the molecule `FC(F)Oc1cc(-n2cc(COc3ncc(Cl)cn3)nn2)ccc1Cl` [Example 28, 5-Chloro-2-[[1-[4-chloro-3-(difluoromethoxy)phenyl]triazol-4-yl]methoxy]pyrimidine], the half-maximal inhibitory concentration (IC50) amounted to 0.002 µM. Under `COc1ccnc(OCc2cn(-c3ccc(Cl)c(OC(F)F)c3)nn2)n1` [Example 29, 2-[[1-[4-Chloro-3-(difluoromethoxy)phenyl]triazol-4-yl]methoxy]-4-methoxy-pyrimidine] stands 0.011 µM; under `Cc1ccnc(OCc2cn(-c3ccc(Cl)c(C(F)F)c3)nn2)n1` [Example 30, 2-[[1-[4-Chloro-3-(difluoromethyl)phenyl]triazol-4-yl]methoxy]-4-methyl-pyrimidine], 0.004 µM; under `Cc1cnc(OCc2cn(-c3ccc(Cl)c(C(F)F)c3)nn2)nc1` [Example 31, 2-[[1-[4-Chloro-3-(difluoromethyl)phenyl]triazol-4-yl]methoxy]-5-methyl-pyrimidine], 0.001 µM.

For the molecule `CCc1cnc(OCc2cn(-c3ccc(Cl)c(C(F)F)c3)nn2)nc1` [Example 32, 2-[[1-[4-Chloro-3-(difluoromethyl)phenyl]triazol-4-yl]methoxy]-5-ethyl-pyrimidine], the IC50 was 0.002 µM. With `Fc1ccc(-n2cc(COc3ncccn3)nn2)cc1OC(F)F` [Example 33, 2-[[1-[3-(Difluoromethoxy)-4-fluoro-phenyl]triazol-4-yl]methoxy]pyrimidine], the IC50 turned out to be 0.018 µM. With `Cc1cnc(OCc2cn(-c3ccc(Cl)c(OC(F)F)c3)nn2)cn1` [Example 34, 2-[[1-[4-Chloro-3-(difluoromethoxy)phenyl]triazol-4-yl]methoxy]-5-methyl-pyrazine], the IC50 was determined as 0.159 µM.

As to `FC(F)Oc1cnc(OCc2cn(-c3ccc(Cl)c(OC(F)F)c3)nn2)nc1` [Example 35, 2-[[1-[4-Chloro-3-(difluoromethoxy)phenyl]triazol-4-yl]methoxy]-5-(difluoromethoxy)pyrimidine], the IC50 came to 0.006 µM. As to `Fc1ccc(-n2cc(CNc3ncccn3)nn2)cc1OC(F)F` [Example 36, N-[[1-[3-(Difluoromethoxy)-4-fluoro-phenyl]triazol-4-yl]methyl]pyrimidin-2-amine], the IC50 was found to be 0.351 µM. For the molecule `Cc1c(F)ccc(-n2cc(COc3ncc(Cl)cn3)nn2)c1F` [Example 37, 5-Chloro-2-[[1-(2,4-difluoro-3-methyl-phenyl)triazol-4-yl]methoxy]pyrimidine], the half-maximal inhibitory concentration (IC50) is 0.053 µM. Under `Cc1cnc(OCc2cn(-c3ccc(F)c(C)c3F)nn2)nc1` [Example 38, 2-[[1-(2,4-Difluoro-3-methyl-phenyl)triazol-4-yl]methoxy]-5-methyl-pyrimidine] stands 0.027 µM. Under `CCc1cnc(OCc2cn(-c3ccc(F)c(C)c3F)nn2)nc1` [Example 39, 2-[[1-(2,4-Difluoro-3-methyl-phenyl)triazol-4-yl]methoxy]-5-ethyl-pyrimidine] stands 0.015 µM; under `CCc1cnc(OCc2cn(-c3ccc(F)c(Br)c3)nn2)nc1` [Example 40, 2-[[1-(3-Bromo-4-fluoro-phenyl)triazol-4-yl]methoxy]-5-ethyl-pyrimidine], 0.001 µM; under `Fc1ccc(-n2cc(COc3ncc(Cl)cn3)nn2)cc1Br` [Example 42, 2-((1-(3-bromo-4-fluorophenyl)-1H-1,2,3-triazol-4-yl)methoxy)-5-chloropyrimidine], 0.003 µM. The figure for `CC(C)c1cnc(OCc2cn(-c3ccc(F)c(Br)c3)nn2)nc1` [Example 43, 2-[[1-(3-Bromo-4-fluoro-phenyl)triazol-4-yl]methoxy]-5-isopropylpyrimidine] is 0.005 µM; for `Fc1ccc(-n2cc(COc3ncc(C(F)(F)F)cn3)nn2)cc1Br` [Example 44, 2-[[1-(3-Bromo-4-fluoro-phenyl)triazol-4-yl]methoxy]-5-(trifluoromethyl)pyrimidine] it is 0.005 µM; for `FC(F)c1cc(-n2cc(COc3ncc(C(F)(F)F)cn3)nn2)ccc1Cl` [Example 45, 2-[[1-[4-Chloro-3-(difluoromethyl)phenyl]triazol-4-yl]methoxy]-5-(trifluoromethyl)pyrimidine] it is 0.004 µM. As for `COc1cnc(OCc2cn(-c3ccc(Cl)c(C(F)F)c3)nn2)nc1` [Example 46, 2-[[1-[4-Chloro-3-(difluoromethyl)phenyl]triazol-4-yl]methoxy]-5-methoxy-pyrimidine], the IC50 came to 0.001 µM. Under `FC(F)c1cc(-n2cc(COc3ncc(Cl)cn3)nn2)ccc1Cl` [Example 47, 5-Chloro-2-[[1-[4-chloro-3-(difluoromethyl)phenyl]triazol-4-yl]methoxy]pyrimidine] stands 0.003 µM; under `CC(C)c1cnc(OCc2cn(-c3ccc(Cl)c(C(F)F)c3)nn2)nc1` [Example 48, 2-[[1-[4-Chloro-3-(difluoromethyl)phenyl]triazol-4-yl]methoxy]-5-isopropyl-pyrimidine], 0.008 µM. As to `Fc1ccc(-n2cc(COc3ncc(Cl)cn3)nn2)cc1C(F)F` [Example 49, 5-Chloro-2-[[1-[3-(difluoromethyl)-4-fluoro-phenyl]triazol-4-yl]methoxy]pyrimidine], the IC50 was 0.003 µM.

Source of the values: patent US10233173B2, “Substituted 1,2,3-triazoles as NR2B-selective NMDA modulators” (JANSSEN PHARMACEUTICA NV, priority 2016, dated 2019).
